The values below come from US20250381143A1, “A SOLID PHARMACEUTICAL COMPOSITION” (ADLAI NORTYE BIOPHARMA CO., LTD., priority 2021, published 2025).

This series can be described thus: Biopharmaceutical Classification System class. In kind it is physicochemical. An excerpt:
The present disclosure relates to a quality controllable solid dosage form and a process for its preparation, wherein the solid dosage form comprises a compound of formula 1 4-{(1S)-1-[({3-(difluoromethyl)-1-methyl-5-[3-(trifluoromethyl)phenoxy]-4-1H-pyrazolyl} carbonyl)amino]ethyl}benzoic acid (compound AN0025) and optionally at least one pharmaceutically acceptable carrier. […] The inventor unexpectedly found in the experiment that AN0025 tablets prepared by different processes can show good uniformity in in vitro dissolution experiments, and AN0025 tablets prepared with different API particle sizes have similar in vitro dissolution behavior and in vivo exposure.

Regarding `C[C@H](NC(=O)c1c(C(F)F)nn(C)c1Oc1cccc(C(F)(F)F)c1)c1ccc(C(=O)O)cc1` [AN0025, 4-{(1S)-1-[({3-(difluoromethyl)-1-methyl-5-[3-(trifluoromethyl)phenoxy]-4-1H-pyrazolyl}carbonyl)amino]ethyl}benzoic acid], the “Biopharmaceutical Classification System class” value is “class IV”. In addition, where the note is “as per BCS class”, the solubility result is “low solubility”.
